The values that follow come from paper PMC5218480 (PLoS ONE, 2017).

The subject of this test is MV-4-11 cells. Kind of test: Gene expression microarray analysis (Affymetrix PrimeView) and GSEA. It is filed as cell-based, human. On the set-up: RFU PODN (11730768_x_at) / Fold change /veh PODN (11730768_x_at) / RFU LINC00158 (11744669_a_at) / Fold change /veh LINC00158 (11744669_a_at) / RFU DUSP10 (11751237_a_at) / Fold change /veh DUSP10 (11751237_a_at) / RFU ID3 (11757404_x_at) / Fold change /veh ID3 (11757404_x_at) / RFU PLEKHG5 (11737974_s_at) / Fold change /veh PLEKHG5 (11737974_s_at) / RFU LRRC4B (11730491_at) / Fold change /veh LRRC4B (11730491_at) / RFU GIMAP4 (11747438_a_at) / Fold change /veh GIMAP4 (11747438_a_at) / RFU KRT8 (11758183_x_at) / Fold change /veh KRT8 (11758183_x_at) / RFU CNN1 (11734310_a_at) / Fold change /veh CNN1 (11734310_a_at) / RFU VPS37D (11726825_at) / Fold change /veh VPS37D (11726825_at) / RFU C10orf10 (11716522_x_at) / Fold change /veh C10orf10 (11716522_x_at) / RFU KIR2DL2 /// KIR2DL4 /// KIR2DL5A /// KIR2DL5B /// KIR2DS1 /// KIR2DS2 /// KIR2DS3 /// KIR2DS4 /// KIR3DL3 /// KIR3DL3 /// KIR3DS1 (11738374_at) / Fold change /veh KIR2DL2 /// KIR2DL4 /// KIR2DL5A /// KIR2DL5B /// KIR2DS1 /// KIR2DS2 /// KIR2DS3 /// KIR2DS4 /// KIR3DL3 /// KIR3DL3 /// KIR3DS1 (11738374_at) / RFU C1QL1 (11718748_at) / Fold change /veh C1QL1 (11718748_at) / RFU TMPRSS4 (11747572_a_at) / Fold change /veh TMPRSS4 (11747572_a_at) / RFU HAMP (11756126_x_at) / Fold change /veh HAMP (11756126_x_at) / RFU RNFT2 (11725882_a_at) / Fold change /veh RNFT2 (11725882_a_at) / RFU NR4A2 (11747474_a_at) / Fold change /veh NR4A2 (11747474_a_at) / RFU ABCC12 (11746883_a_at) / Fold change /veh ABCC12 (11746883_a_at) / RFU TMEM136 (11760407_x_at) / Fold change /veh TMEM136 (11760407_x_at) / RFU CLDN22 /// WWC2 (11732394_at) / Fold change /veh CLDN22 /// WWC2 (11732394_at) / RFU HLA-DPB1 (11760878_x_at) / Fold change /veh HLA-DPB1 (11760878_x_at) / RFU SPINT1 (11716480_a_at) / Fold change /veh SPINT1 (11716480_a_at) / RFU GAP43 (11754022_s_at) / Fold change /veh GAP43 (11754022_s_at) / RFU A4GNT (11735810_at) / Fold change /veh A4GNT (11735810_at) / RFU PRB3 (11715151_x_at) / Fold change /veh PRB3 (11715151_x_at) / RFU TUBB4B (11761932_at) / Fold change /veh TUBB4B (11761932_at) / RFU CAPN14 (11732068_a_at) / Fold change /veh CAPN14 (11732068_a_at) / RFU TMCC2 (11721928_a_at) / Fold change /veh TMCC2 (11721928_a_at) / RFU IRGQ (11745062_a_at) / Fold change /veh IRGQ (11745062_a_at) / RFU FAM174B (11720279_a_at) / Fold change /veh FAM174B (11720279_a_at) / RFU TMPRSS4 (11748680_a_at) / Fold change /veh TMPRSS4 (11748680_a_at) / RFU FAM212B (11763350_a_at) / Fold change /veh FAM212B (11763350_a_at) / RFU PLEKHG5 (11743358_a_at) / Fold change /veh PLEKHG5 (11743358_a_at) / RFU ZSCAN30 (11745921_a_at) / Fold change /veh ZSCAN30 (11745921_a_at) / RFU CMKLR1 (11741424_a_at) / Fold change /veh CMKLR1 (11741424_a_at) / RFU LOC101060620 /// MAPK8IP1 (11723275_at) / Fold change /veh LOC101060620 /// MAPK8IP1 (11723275_at) / RFU SPTSSB (11747773_x_at) / Fold change /veh SPTSSB (11747773_x_at) / RFU PRSS12 (11739890_at) / Fold change /veh PRSS12 (11739890_at) / RFU BIN1 (11741810_x_at) / Fold change /veh BIN1 (11741810_x_at) / RFU WNT11 (11732464_a_at) / Fold change /veh WNT11 (11732464_a_at) / RFU C10orf10 (11716521_a_at) / Fold change /veh C10orf10 (11716521_a_at) / RFU C5orf56 (11738089_at) / Fold change /veh C5orf56 (11738089_at) / RFU CYB561 (11721691_x_at) / Fold change /veh CYB561 (11721691_x_at) / RFU ANKRD19P (11752326_a_at) / Fold change /veh ANKRD19P (11752326_a_at) / RFU OR2T12 /// OR2T33 /// OR2T8 (11738714_s_at) / Fold change /veh OR2T12 /// OR2T33 /// OR2T8 (11738714_s_at) / RFU VCAN (11748164_a_at) / Fold change /veh VCAN (11748164_a_at) / RFU JSRP1 (11732532_at) / Fold change /veh JSRP1 (11732532_at) / RFU KRTAP10-11 (11738290_x_at) / Fold change /veh KRTAP10-11 (11738290_x_at) / RFU MYO3A (11730013_a_at) / Fold change /veh MYO3A (11730013_a_at) / RFU EBF3 (11725865_a_at) / Fold change /veh EBF3 (11725865_a_at) / RFU CAMK2N1 (11719241_x_at) / Fold change /veh CAMK2N1 (11719241_x_at) / RFU C5orf56 (11738088_a_at) / Fold change /veh C5orf56 (11738088_a_at) / RFU OLFML3 (11715873_a_at) / Fold change /veh OLFML3 (11715873_a_at) / RFU LOC100653217 /// NTM (11731650_a_at) / Fold change /veh LOC100653217 /// NTM (11731650_a_at) / RFU MAPK11 (11762145_a_at) / Fold change /veh MAPK11 (11762145_a_at) / RFU FIZ1 (11724087_x_at) / Fold change /veh FIZ1 (11724087_x_at) / RFU OASL (11726364_x_at) / Fold change /veh OASL (11726364_x_at) / RFU SOX15 (11748057_x_at) / Fold change /veh SOX15 (11748057_x_at) / RFU CD79A (11719716_a_at) / Fold change /veh CD79A (11719716_a_at) / RFU HIST1H1D (11736915_at) / Fold change /veh HIST1H1D (11736915_at) / RFU CASKIN2 (11723855_a_at) / Fold change /veh CASKIN2 (11723855_a_at) / RFU LOC730098 (11760151_x_at) / Fold change /veh LOC730098 (11760151_x_at) / RFU OR4N2 (11742367_at) / Fold change /veh OR4N2 (11742367_at) / RFU PRRT2 (11749266_a_at) / Fold change /veh PRRT2 (11749266_a_at) / RFU SNX32 (11753110_a_at) / Fold change /veh SNX32 (11753110_a_at) / RFU CDHR5 (11726645_a_at) / Fold change /veh CDHR5 (11726645_a_at) / RFU RCAN1 (11760418_a_at) / Fold change /veh RCAN1 (11760418_a_at) / RFU FAM167A (11723789_a_at) / Fold change /veh FAM167A (11723789_a_at) / RFU FAM26E (11764081_at) / Fold change /veh FAM26E (11764081_at) / RFU ISYNA1 (11749810_s_at) / Fold change /veh ISYNA1 (11749810_s_at) / RFU ACY1 (11761880_at) / Fold change /veh ACY1 (11761880_at) / RFU 11764098_at / Fold change /veh 11764098_at / RFU SAMD14 (11745864_x_at) / Fold change /veh SAMD14 (11745864_x_at) / RFU NPB (11741838_a_at) / Fold change /veh NPB (11741838_a_at) / RFU TMPRSS6 (11731388_a_at) / Fold change /veh TMPRSS6 (11731388_a_at) / RFU KRTAP10-2 (11738614_at) / Fold change /veh KRTAP10-2 (11738614_at) / RFU ARHGAP8 /// PRR5-ARHGAP8 (11727945_x_at) / Fold change /veh ARHGAP8 /// PRR5-ARHGAP8 (11727945_x_at) / RFU KRTAP5-7 /// NADSYN1 (11734609_at) / Fold change /veh KRTAP5-7 /// NADSYN1 (11734609_at) / RFU RASL12 (11751679_a_at) / Fold change /veh RASL12 (11751679_a_at) / RFU CDKN2B (11736163_a_at) / Fold change /veh CDKN2B (11736163_a_at) / RFU PRF1 (11729649_at) / Fold change /veh PRF1 (11729649_at) / RFU, ZNF638 /// ZNF638-IT1 / Fold change vs veh, ZNF638 /// ZNF638-IT1 / RFU, PANK3 / Fold change vs veh, PANK3 / RFU, SH3YL1 / Fold change vs veh, SH3YL1 / RFU, ZEB2 / Fold change vs veh, ZEB2 / RFU, NRIP1 / Fold change vs veh, NRIP1 / RFU, PTTG1IP / Fold change vs veh, PTTG1IP / RFU, CAPN2 / Fold change vs veh, CAPN2 / RFU, MED14 / Fold change vs veh, MED14 / RFU, SNORA58 / Fold change vs veh, SNORA58 / RFU, C1orf63 / Fold change vs veh, C1orf63 / RFU, LRRFIP1 / Fold change vs veh, LRRFIP1 / RFU, NDUFAF7 / Fold change vs veh, NDUFAF7 / RFU, SLC12A2 / Fold change vs veh, SLC12A2 / RFU, IBTK / Fold change vs veh, IBTK / RFU, ESF1 / Fold change vs veh, ESF1 / Fold change vs veh, TMEM50B / RFU, TAOK1 / Fold change vs veh, TAOK1 / RFU, ACBD3 / Fold change vs veh, ACBD3 / RFU, TMA16 / Fold change vs veh, TMA16 / RFU, RWDD3 / Fold change vs veh, RWDD3 / RFU, BCAT1 / Fold change vs veh, BCAT1 / RFU, EDEM3 / Fold change vs veh, EDEM3 / RFU, TMEM33 / Fold change vs veh, TMEM33 / RFU, WDR75 / Fold change vs veh, WDR75 / RFU, AHCTF1 / Fold change vs veh, AHCTF1 / RFU, TFRC / Fold change vs veh, TFRC / RFU, ZDHHC17 / Fold change vs veh, ZDHHC17 / RFU, NOM1 / Fold change vs veh, NOM1 / RFU, ARL8B / Fold change vs veh, ARL8B / RFU, ZBTB11 / Fold change vs veh, ZBTB11 / RFU, TAMM41 / Fold change vs veh, TAMM41 / RFU, KIAA1704 /// LOC100996395 / Fold change vs veh, KIAA1704 /// LOC100996395 / RFU, ING1 / Fold change vs veh, ING1 / RFU, TRMT61B / Fold change vs veh, TRMT61B / RFU, FUBP3 / Fold change vs veh, FUBP3 / RFU, TP53 / Fold change vs veh, TP53 / RFU, TNKS2 / Fold change vs veh, TNKS2 / RFU, ZFP14 / Fold change vs veh, ZFP14 / RFU, ACTR2 / Fold change vs veh, ACTR2 / RFU, PPP3R1 / Fold change vs veh, PPP3R1 / RFU, PIK3R1 / Fold change vs veh, PIK3R1 / RFU, HNRNPA1 / Fold change vs veh, HNRNPA1 / RFU, RNF170 / Fold change vs veh, RNF170 / RFU, ZNF28 / Fold change vs veh, ZNF28 / RFU, RNGTT / Fold change vs veh, RNGTT / RFU, OGT / Fold change vs veh, OGT / RFU, BRD1 / Fold change vs veh, BRD1 / RFU, MARS / Fold change vs veh, MARS / RFU, ZNF655 / Fold change vs veh, ZNF655 / RFU, FAHD1 / Fold change vs veh, FAHD1 / RFU, BDP1 / Fold change vs veh, BDP1 / RFU, LRRCC1 / Fold change vs veh, LRRCC1 / RFU, ARID1A / Fold change vs veh, ARID1A / RFU, ZNF146 / Fold change vs veh, ZNF146 / RFU, ZNF330 / Fold change vs veh, ZNF330 / RFU, GPN3 / Fold change vs veh, GPN3 / RFU, C9orf123 / Fold change vs veh, C9orf123 / RFU, N4BP2L2 / Fold change vs veh, N4BP2L2 / RFU, ARFIP1 / Fold change vs veh, ARFIP1 / RFU, FAM179B / Fold change vs veh, FAM179B / RFU, BCL10 / Fold change vs veh, BCL10 / RFU, UHRF1BP1L / Fold change vs veh, UHRF1BP1L / RFU, BET1 / Fold change vs veh, BET1 / RFU, CNOT2 / Fold change vs veh, CNOT2 / RFU, ZNF268 / Fold change vs veh, ZNF268 / Fold change vs veh, ZNF507 / RFU, DGCR2 / Fold change vs veh, DGCR2 / RFU, WDSUB1 / Fold change vs veh, WDSUB1 / Fold change vs veh, HSP90B1 /// MIR3652 / RFU, ADSS / Fold change vs veh, ADSS / RFU, GK / Fold change vs veh, GK / RFU, ZNF148 / Fold change vs veh, ZNF148 / RFU, TAF9 / Fold change vs veh, TAF9 / RFU, SLC1A5 / Fold change vs veh, SLC1A5 / RFU, SLMO2 / Fold change vs veh, SLMO2 / RFU, ABCC4 / Fold change vs veh, ABCC4 / RFU, LOC101060439 /// RAP1B / Fold change vs veh, LOC101060439 /// RAP1B / RFU, RFX7 / Fold change vs veh, RFX7 / RFU, GTPBP10 / Fold change vs veh, GTPBP10 / RFU, CNEP1R1 / Fold change vs veh, CNEP1R1 / RFU, BIVM-ERCC5 /// ERCC5 / Fold change vs veh, BIVM-ERCC5 /// ERCC5 / RFU, ILF3 / Fold change vs veh, ILF3 / RFU 11762660_at / Fold change /veh 11762660_at / RFU VCAN (11757783_s_at) / Fold change /veh VCAN (11757783_s_at) / RFU DDX43 (11728927_at) / Fold change /veh DDX43 (11728927_at) / RFU KRT8 (11758188_x_at) / Fold change /veh KRT8 (11758188_x_at) / RFU NKD1 (11759106_at) / Fold change /veh NKD1 (11759106_at) / RFU SRD5A1 (11742802_a_at) / Fold change /veh SRD5A1 (11742802_a_at) / RFU TPSAB1 /// TPSB2 (11721975_s_at) / Fold change /veh TPSAB1 /// TPSB2 (11721975_s_at) / RFU GSTM3 (11746129_a_at) / Fold change /veh GSTM3 (11746129_a_at) / RFU IL23R (11737362_x_at) / Fold change /veh IL23R (11737362_x_at) / RFU TMEM51 (11727254_a_at) / Fold change /veh TMEM51 (11727254_a_at) / RFU PIWIL2 (11732686_x_at) / Fold change /veh PIWIL2 (11732686_x_at) / RFU ORM1 (11744905_x_at) / Fold change /veh ORM1 (11744905_x_at) / RFU CCDC152 (11743942_at) / Fold change /veh CCDC152 (11743942_at) / RFU ECM1 (11717891_a_at) / Fold change /veh ECM1 (11717891_a_at) / RFU IL23R (11748794_a_at) / Fold change /veh IL23R (11748794_a_at) / RFU TNFAIP8L3 (11732012_x_at) / Fold change /veh TNFAIP8L3 (11732012_x_at) / RFU MBOAT4 (11741988_at) / Fold change /veh MBOAT4 (11741988_at) / RFU 11764193_at / Fold change /veh 11764193_at / RFU TMEM53 (11763286_at) / Fold change /veh TMEM53 (11763286_at) / RFU MAGEB2 (11727129_at) / Fold change /veh MAGEB2 (11727129_at) / RFU TMEM200A (11744735_a_at) / Fold change /veh TMEM200A (11744735_a_at) / RFU CCDC152 (11751479_a_at) / Fold change /veh CCDC152 (11751479_a_at) / RFU FAM211A (11726209_a_at) / Fold change /veh FAM211A (11726209_a_at) / RFU RGS16 (11746705_a_at) / Fold change /veh RGS16 (11746705_a_at) / RFU VCAN (11755009_s_at) / Fold change /veh VCAN (11755009_s_at) / RFU RHOB (11743442_s_at) / Fold change /veh RHOB (11743442_s_at) / RFU RGS16 (11720943_a_at) / Fold change /veh RGS16 (11720943_a_at) / RFU RGS16 (11720944_at) / Fold change /veh RGS16 (11720944_at) / RFU, VPS4B / Fold change vs veh, VPS4B / RFU, CREB1 / Fold change vs veh, CREB1 / RFU, DNAJC13 / Fold change vs veh, DNAJC13 / RFU, GNAQ / Fold change vs veh, GNAQ / RFU, CDK5R1 / Fold change vs veh, CDK5R1 / RFU, ZRANB3 / Fold change vs veh, ZRANB3 / RFU, CUL4A / Fold change vs veh, CUL4A / RFU, CCNY / Fold change vs veh, CCNY / RFU, UFL1 / Fold change vs veh, UFL1 / RFU, COG3 / Fold change vs veh, COG3 / RFU, DIAPH2 / Fold change vs veh, DIAPH2 / RFU, SKA2 / Fold change vs veh, SKA2 / RFU, AFF3 / Fold change vs veh, AFF3 / RFU, LMF1 / Fold change vs veh, LMF1 / RFU, IPO11 / Fold change vs veh, IPO11 / RFU, DFFB / Fold change vs veh, DFFB / RFU, FOXP1 / Fold change vs veh, FOXP1 / RFU, CARD8 / Fold change vs veh, CARD8 / RFU, STRN3 / Fold change vs veh, STRN3 / RFU, ADK / Fold change vs veh, ADK / RFU, RASSF2 / Fold change vs veh, RASSF2 / RFU, WIPF1 / Fold change vs veh, WIPF1 / RFU, LARP1B / Fold change vs veh, LARP1B / RFU, RASA1 / Fold change vs veh, RASA1 / RFU, RB1 / Fold change vs veh, RB1 / RFU, PPFIA1 / Fold change vs veh, PPFIA1 / RFU, MAT2A / Fold change vs veh, MAT2A / RFU, CCT5 / Fold change vs veh, CCT5 / RFU, WDR92 / Fold change vs veh, WDR92 / RFU, CUX1 / Fold change vs veh, CUX1 / RFU, TTC7A / Fold change vs veh, TTC7A / RFU, TMEM135 / Fold change vs veh, TMEM135 / RFU, DEPTOR / Fold change vs veh, DEPTOR / RFU, CPM / Fold change vs veh, CPM / RFU, DNAJB6 / Fold change vs veh, DNAJB6 / RFU, CACNA2D3 / Fold change vs veh, CACNA2D3 / RFU, DTX4 / Fold change vs veh, DTX4 / RFU, TFCP2 / Fold change vs veh, TFCP2 / RFU, GMCL1 /// GMCL1P1 / Fold change vs veh, GMCL1 /// GMCL1P1 / RFU, AEBP2 / Fold change vs veh, AEBP2 / RFU, SNHG1 /// SNORD22 /// SNORD25 /// SNORD26 /// SNORD27 /// SNORD28 /// SNORD29 /// SNORD31 / Fold change vs veh, SNHG1 /// SNORD22 /// SNORD25 /// SNORD26 /// SNORD27 /// SNORD28 /// SNORD29 /// SNORD31 / Fold change (Aza/veh), C12orf56 (ProbeSet 11735607_a_at) / Fold change (ACY-1035/veh), C12orf56 (ProbeSet 11735607_a_at) / Fold change (Aza/veh), FGFR1OP (ProbeSet 11751329_s_at) / Fold change (ACY-1035/veh), FGFR1OP (ProbeSet 11751329_s_at) / Fold change (Aza/veh), VPS36 (ProbeSet 11739960_a_at) / Fold change (ACY-1035/veh), VPS36 (ProbeSet 11739960_a_at) / RFU SYPL1 (11715823_x_at) / Fold change /veh SYPL1 (11715823_x_at) / RFU IGFBP7 (11715501_s_at) / Fold change /veh IGFBP7 (11715501_s_at) / RFU REEP3 (11722064_at) / Fold change /veh REEP3 (11722064_at) / RFU IGLL1 (11728026_x_at) / Fold change /veh IGLL1 (11728026_x_at): dose or concentration left out as unconfirmed. As to conditions: MV-4-11 cells, 48 hours.

For the compound `Nc1ccc(-c2cccs2)cc1NC(=O)c1ccc2c(c1)cc(C1CC1)n2CCN1CCOCC1` [ACY-1035], the “Fold change /veh CCDC152 (11743942_at)” value worked out at 1.01.
